pIC50: −log10 of the molar value.
How the values were obtained:
[1] = molecular target: IDH1-R132H recombinant protein (Homo sapiens (Human), UniProt O75874, R132H); assay: IDH1-R132H enzymatic assay; type: biochemical; conditions: inhibition of NADPH consumption, diaphorase/resazurin readout; read-out: Enzyme IDH1 R132H Range IC50
[2] = molecular target: IDH1-R132C recombinant protein (Homo sapiens (Human), UniProt O75874, R132C); assay: IDH1-R132C enzymatic assay; type: biochemical; conditions: inhibition of NADPH consumption, diaphorase/resazurin readout; read-out: Enzyme IDH1 R132C Range IC50
Sequence of IDH1-R132C recombinant protein (O75874 whole entry R132C): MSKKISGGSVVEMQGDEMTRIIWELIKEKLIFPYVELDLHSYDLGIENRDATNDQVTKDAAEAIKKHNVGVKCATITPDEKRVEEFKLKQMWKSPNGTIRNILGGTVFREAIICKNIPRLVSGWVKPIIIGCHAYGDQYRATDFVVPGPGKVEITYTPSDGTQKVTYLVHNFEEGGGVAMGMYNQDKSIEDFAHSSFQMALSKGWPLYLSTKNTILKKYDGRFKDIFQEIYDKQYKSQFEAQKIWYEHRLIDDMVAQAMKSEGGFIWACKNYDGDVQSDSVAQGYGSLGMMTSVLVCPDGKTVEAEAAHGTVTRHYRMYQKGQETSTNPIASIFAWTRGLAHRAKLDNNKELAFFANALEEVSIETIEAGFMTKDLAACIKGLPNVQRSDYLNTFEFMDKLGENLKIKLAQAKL
Protocol: Assays were performed in a 384-well black plate. […] After the plate was centrifuged briefly, an aliquot of 10 μL of 2 mM α-ketoglutarate and 20 μM NADPH solution prepared in assay buffer was then added to each well and the reaction was maintained at 25° C. for 45 minutes. An aliquot of 10 μL of diaphorase solution (0.15 U/mL diaphorase and 30 μM Resazurin in assay buffer) was added to each well. […] The IC50 of a given compound was calculated by fitting the dose response curve of inhibition of NADPH consumption at a given concentration with the four parameter logistic equation.

[3] = tested on: HCT116 isogenic IDH1-R132H mutant cells; assay: Cellular 2-HG assay using HCT116 mutant IDH1 cells (R132H); type: cell-based; conditions: Homo sapiens, HCT-116; cellular 2-HG inhibition, 24 hours, RapidFire mass spectrometry; read-out: HCT IDH1 R132H Range IC50
Protocol: (§1) HCT116 isogenic IDH1-R132H and IDH1-R132C mutant cells were cultured in growth media (McCoy's 5 A, 10% fetal bovine serum, 1× antibiotic-antimycotic solution and 0.3 mg/mL G418) in 5% CO2 in an incubator at 37° C. To prepare the assay, cells were trypsinized and resuspended in assay media (McCoy's 5 A with no L-glutamine, 10% fetal bovine serum, 1× antibiotic-antimycotic solution and 0.3 mg/mL G418). An aliquot of 10,000 cells/100 μL was transferred to each well of a clear 96-well tissue culture plate. The cells were incubated in 5% CO2 at 37° C. in an incubator overnight to allow for proper cell attachment. An aliquot of 50 μL of compound containing assay media were then added to each well and the assay plate was kept in 5% CO2 at 37° C. in an incubator for 24 hours. The media was then removed from each well and 150 μL of a methanol/water mixture (80/20 v/v) was added to each well. The plates were kept at −80° C. freezer overnight to allow for complete cell lysis. An aliquot of 125 μL of extracted supernatant was analyzed by RapidFire high-throughout-mass spectrometry (Agilent) to determine the cellular 2-HG level. The IC50 of a given compound was calculated by fitting the dose response curve of cellular 2-HG inhibition at a given concentration with the four parameter logistic equation

[4] = tested on: HCT116 isogenic IDH1-R132C mutant cells; assay: Cellular 2-HG assay using HCT116 mutant IDH1 cells (R132C); type: cell-based; conditions: Homo sapiens, HCT-116; cellular 2-HG inhibition, 24 hours, RapidFire mass spectrometry; read-out: HCT IDH1 R132C Range IC50
Protocol: as §1

Sequence of IDH1-R132H recombinant protein (O75874 whole entry R132H): as the sequence (O75874 whole entry R132C) above, with C132H counted along it

| Compound | pIC50 [1] | pIC50 [2] | pIC50 [3] | pIC50 [4] |
| --- | --- | --- | --- | --- |
| COc1cc2[nH]c(=O)c([C@H](C)Nc3cc(C)c(C#N)cn3)cc2cc1Cl [Compound I-27, 6-{[(1S)-1-(6-chloro-7-methoxy-2-oxo-1,2-dihydroquinolin-3-yl)ethyl]amino}-4-methylpyridine-3-carbonitrile] | > 7.00 | > 7.00 | 7.00 to 8.00 | 6.00 to 7.00 |
| Cc1nc(N[C@@H](C)c2cc3cc(Cl)c(OCc4ccccn4)cc3[nH]c2=O)ccc1C#N [Compound I-28, 6-{[(1S)-1-[6-chloro-2-oxo-7-(pyridin-2-ylmethoxy)-1,2-dihydroquinolin-3-yl]ethyl]amino}-2-methylpyridine-3-carbonitrile] | > 7.00 | > 7.00 | 7.00 to 8.00 | > 8.00 |
| Cc1nc(NC(C)c2cc3cc(Cl)c(OCC4CC(F)(F)C4)cc3[nH]c2=O)ccc1C#N (stereo not drawn) [Compound I-30, 6-[(1-{6-chloro-7-[(3,3-difluorocyclobutyl)methoxy]-2-oxo-1,2-dihydroquinolin-3-yl}ethyl)amino]-2-methylpyridine-3-carbonitrile] | > 7.00 | 6.00 to 7.00 | 7.00 to 8.00 | 7.00 to 8.00 |
| Cc1c(-c2ccnc(N[C@@H](C)c3cc4cc(Cl)ccc4[nH]c3=O)c2)cnn1C [Compound I-40, 6-chloro-3-[(1S)-1-{[4-(1,5-dimethyl-1H-pyrazol-4-yl)pyridin-2-yl]amino}ethyl]-1,2-dihydroquinolin-2-one] | 6.00 to 7.00 | 6.00 to 7.00 | 6.00 to 7.00 | 6.00 to 7.00 |
| Cc1nc(NCc2cc3cc(Cl)ccc3[nH]c2=O)ccc1C#N [Compound I-58, 6-{[(6-chloro-2-oxo-1,2-dihydroquinolin-3-yl)methyl]amino}-2-methylpyridine-3-carbonitrile] | > 7.00 | 6.00 to 7.00 | 6.00 to 7.00 | < 6.00 |
| COc1cc2[nH]c(=O)c(CNc3ccc(C#N)c(C)n3)cc2cc1Cl [Compound I-83, 6-{[(6-chloro-7-methoxy-2-oxo-1,2-dihydroquinolin-3-yl)methyl]amino}-2-methylpyridine-3-carbonitrile] | > 7.00 | < 5.00 | < 6.00 | < 6.00 |

Reference: US10253015B2, “Pyridinyl quinolinone derivatives as mutant-isocitrate dehydrogenase inhibitors” (FORMA TM2, Inc., priority 2014, dated 2019)
